Measured values from PubChem BioAssay AID652107 (NMMLSC, 2013).

Tested on: human granulocytes, fMLF-stimulated F-actin, FITC-phalloidin flow
Assay: inhibition of fMLF-induced F-actin formation, mechanism study for Cdc42 probe extension project, cell-based, primary human granulocytes, FITC-phalloidin flow cytometry (AID 652107)
Conditions: at 10 µM; stronger effect = higher value

COc1ccc(C2CC(c3ccccc3)=NN2c2ccc(S(N)(=O)=O)cc2)cc1 (stereo unspecified)
inhibition: 10%
